# T1: M2/M1 (hRRM2 and hRRM1 reconstituted RNR) (Homo sapiens, UniProt P31350)
# T1 construct: 6xHis; made in house
# T1 sequence (P31350 1-389): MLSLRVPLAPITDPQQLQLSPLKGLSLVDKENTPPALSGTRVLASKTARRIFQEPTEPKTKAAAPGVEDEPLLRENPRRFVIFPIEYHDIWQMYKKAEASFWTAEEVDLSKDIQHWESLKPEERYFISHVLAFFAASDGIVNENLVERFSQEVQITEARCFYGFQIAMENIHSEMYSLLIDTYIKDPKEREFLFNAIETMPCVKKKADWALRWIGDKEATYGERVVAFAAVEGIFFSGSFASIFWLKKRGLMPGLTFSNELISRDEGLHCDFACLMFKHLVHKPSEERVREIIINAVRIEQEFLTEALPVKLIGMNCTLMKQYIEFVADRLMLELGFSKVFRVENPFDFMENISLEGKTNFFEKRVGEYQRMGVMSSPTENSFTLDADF
# T2: p53R2/M1 (p53R2 and hRRM1 reconstituted RNR) (Homo sapiens, UniProt Q7LG56)
# T2 construct: 6xHis; made in house
# T2 sequence (Q7LG56 1-351): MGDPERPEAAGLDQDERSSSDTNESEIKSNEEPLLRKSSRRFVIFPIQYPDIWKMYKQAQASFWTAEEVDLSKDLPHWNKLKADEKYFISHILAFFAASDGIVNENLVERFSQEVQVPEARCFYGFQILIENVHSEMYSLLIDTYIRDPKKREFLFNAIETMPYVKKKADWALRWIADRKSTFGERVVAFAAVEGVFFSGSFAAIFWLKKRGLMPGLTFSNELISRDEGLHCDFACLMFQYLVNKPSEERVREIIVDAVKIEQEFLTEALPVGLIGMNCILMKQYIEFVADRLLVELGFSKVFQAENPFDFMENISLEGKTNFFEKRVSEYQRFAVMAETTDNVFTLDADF
# T3: hRRM1 (human ribonucleotide reductase large subunit M1)
# T3 chain: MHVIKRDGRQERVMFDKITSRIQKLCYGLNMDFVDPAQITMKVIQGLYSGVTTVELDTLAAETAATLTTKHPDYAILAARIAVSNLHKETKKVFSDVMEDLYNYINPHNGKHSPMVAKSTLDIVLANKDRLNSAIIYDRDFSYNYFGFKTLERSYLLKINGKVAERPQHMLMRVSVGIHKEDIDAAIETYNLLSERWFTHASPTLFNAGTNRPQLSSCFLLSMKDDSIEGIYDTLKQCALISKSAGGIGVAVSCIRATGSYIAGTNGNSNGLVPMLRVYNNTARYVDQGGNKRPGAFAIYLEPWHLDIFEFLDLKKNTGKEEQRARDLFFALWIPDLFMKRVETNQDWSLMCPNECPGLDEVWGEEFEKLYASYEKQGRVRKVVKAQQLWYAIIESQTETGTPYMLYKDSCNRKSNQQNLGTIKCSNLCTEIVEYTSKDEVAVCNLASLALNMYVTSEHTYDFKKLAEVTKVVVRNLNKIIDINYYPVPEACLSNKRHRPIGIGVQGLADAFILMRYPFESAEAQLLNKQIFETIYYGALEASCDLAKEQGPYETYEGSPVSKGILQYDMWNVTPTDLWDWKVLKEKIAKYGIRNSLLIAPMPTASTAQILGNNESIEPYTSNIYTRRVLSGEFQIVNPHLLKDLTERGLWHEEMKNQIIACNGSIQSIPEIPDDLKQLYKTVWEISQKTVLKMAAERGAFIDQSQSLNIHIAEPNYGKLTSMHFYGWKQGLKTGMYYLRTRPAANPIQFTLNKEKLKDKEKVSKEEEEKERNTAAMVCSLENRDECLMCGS
# T4: hRRM1 (human ribonucleotide reductase large subunit M1) (human, UniProt P23921 1-792)
# T4 construct: also called R1 subunit
# T4 sequence: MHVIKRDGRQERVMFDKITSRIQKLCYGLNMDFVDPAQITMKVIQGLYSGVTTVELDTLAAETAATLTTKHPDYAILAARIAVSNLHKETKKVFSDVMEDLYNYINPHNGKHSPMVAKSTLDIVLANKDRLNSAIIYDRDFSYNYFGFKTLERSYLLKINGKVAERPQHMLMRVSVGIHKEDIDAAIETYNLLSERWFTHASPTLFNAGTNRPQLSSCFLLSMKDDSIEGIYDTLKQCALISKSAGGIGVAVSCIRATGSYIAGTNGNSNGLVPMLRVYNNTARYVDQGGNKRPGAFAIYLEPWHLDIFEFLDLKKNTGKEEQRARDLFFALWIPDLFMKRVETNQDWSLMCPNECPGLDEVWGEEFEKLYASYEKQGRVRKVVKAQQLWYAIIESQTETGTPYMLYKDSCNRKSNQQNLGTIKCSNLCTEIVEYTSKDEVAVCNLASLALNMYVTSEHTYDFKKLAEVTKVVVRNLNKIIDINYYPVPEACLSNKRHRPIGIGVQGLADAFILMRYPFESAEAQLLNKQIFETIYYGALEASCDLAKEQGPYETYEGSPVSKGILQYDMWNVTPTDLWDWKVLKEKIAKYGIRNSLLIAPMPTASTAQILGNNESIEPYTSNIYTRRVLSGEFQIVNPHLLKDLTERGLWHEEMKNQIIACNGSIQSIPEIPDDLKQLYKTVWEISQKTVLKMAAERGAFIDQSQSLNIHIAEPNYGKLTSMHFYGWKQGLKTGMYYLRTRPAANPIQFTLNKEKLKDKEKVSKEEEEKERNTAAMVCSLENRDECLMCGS
# B1: p53R2 (human ribonucleotide reductase small subunit p53R2) (protein)
# chain: MGDPERPEAAGLDQDERSSSDTNESEIKSNEEPLLRKSSRRFVIFPIQYPDIWKMYKQAQASFWTAEEVDLSKDLPHWNKLKADEKYFISHILAFFAASDGIVNENLVERFSQEVQVPEARCFYGFQILIENVHSEMYSLLIDTYIRDPKKREFLFNAIETMPYVKKKADWALRWIADRKSTFGERVVAFAAVEGVFFSGSFAAIFWLKKRGLMPGLTFSNELISRDEGLHCDFACLMFQYLVNKPSEERVREIIVDAVKIEQEFLTEALPVGLIGMNCILMKQYIEFVADRLLVELGFSKVFQAENPFDFMENISLEGKTNFFEKRVSEYQRFAVMAETTDNVFTLDADF
# B2: hRRM2 (human ribonucleotide reductase small subunit M2) (protein)
# chain: MLSLRVPLAPITDPQQLQLSPLKGLSLVDKENTPPALSGTRVLASKTARRIFQEPTEPKTKAAAPGVEDEPLLRENPRRFVIFPIEYHDIWQMYKKAEASFWTAEEVDLSKDIQHWESLKPEERYFISHVLAFFAASDGIVNENLVERFSQEVQITEARCFYGFQIAMENIHSEMYSLLIDTYIKDPKEREFLFNAIETMPCVKKKADWALRWIGDKEATYGERVVAFAAVEGIFFSGSFASIFWLKKRGLMPGLTFSNELISRDEGLHCDFACLMFKHLVHKPSEERVREIIINAVRIEQEFLTEALPVKLIGMNCTLMKQYIEFVADRLMLELGFSKVFRVENPFDFMENISLEGKTNFFEKRVGEYQRMGVMSSPTENSFTLDADF
# B3: truncated form of the M2 subunit, lacking these 7 amino acids at the C-terminus (enzyme)
# chain: MLSLRVPLAPITDPQQLQLSPLKGLSLVDKENTPPALSGTRVLASKTARRIFQEPTEPKTKAAAPGVEDEPLLRENPRRFVIFPIEYHDIWQMYKKAEASFWTAEEVDLSKDIQHWESLKPEERYFISHVLAFFAASDGIVNENLVERFSQEVQITEARCFYGFQIAMENIHSEMYSLLIDTYIKDPKEREFLFNAIETMPCVKKKADWALRWIGDKEATYGERVVAFAAVEGIFFSGSFASIFWLKKRGLMPGLTFSNELISRDEGLHCDFACLMFKHLVHKPSEERVREIIINAVRIEQEFLTEALPVKLIGMNCTLMKQYIEFVADRLMLELGFSKVFRVENPFDFMENISLEGKTNFFEKRVGEYQRMGVMSSPTENS
# notes: also called truncated M2
# Assays:
# [1] = Standard cell-based assay; conditions: read-out: Cell-based assay (IC50 ± sd)
# [2] = biological target: T1, M2/M1 (hRRM2 and hRRM1 reconstituted RNR); assay: In vitro RNR activity assay with reconstituted hRRM2/hRRM1 ([3H]CDP reduction); assay type: biochemical; conditions: compound in dH2O; read-out: In vitro RR activity (IC50 ± sd) M2/M1
# Description: (§1) To reconstitute an active RNR, three 6′His-tag human RNR subunit proteins (hRRM2, p53R2, and hRRM1) were prokaryotically expressed, purified using Ni-resin affinity chromatography, and stored in 50 mM Tris-HCl, pH 7.4, 100 mM KCl at −70° C. according to standard techniques. The purified proteins were subjected to SDS-PAGE analysis. […] To reconstitute RNR, 1 μM of hRRM2 or p53R2 protein was incubated with 0.5 μM hRRM1 protein in multiple-well plates. The reconstitute RNR was tested for RNR activity according to standard techniques.
# (§2) Each compound of various concentration was mixed with the purified hRRM2 and hRRM1, or p53R2 and hRRM1 at room temperature for 30 minutes. An enzymatic reaction buffer was then added to the mixture to reach a final volume of 100 μl and incubated at 37° C. for 30 minutes. The reaction buffer contained […] [^3H] CDP, 50 mM HEPES pH 7.2,6 mM DTT, 4 mM MgOAC, 2 mM ATP, 0.05 mM CDP, 100 mM KCl, and 0.24 mM NADPH. […] FeCl3 could be added to the buffer as an iron source. After dephosphorylation, the supernatant of each reaction mixture was analyzed by an HPLC-connected radioactivity detector. IC50 values were calculated by the non-linear regression equations: f (x)=(a-d)/[1+(x/c)^b]+d.
# [3] = biological target: T2, p53R2/M1 (p53R2 and hRRM1 reconstituted RNR); assay: In vitro RNR activity assay with reconstituted p53R2/hRRM1 ([3H]CDP reduction); assay type: biochemical; conditions: compound in dH2O; read-out: In vitro RR activity (IC50 ± sd) p53R2/M1
# Description: as §1, §2
# [4] = test system: T5, RNR containing hRRM2 or p53R2; assay: In vitro RNR activity assay, both reconstituted RNRs compared (average, selective index, comparison in words); assay type: biochemical, human; conditions: compound in dH2O; average of M2/M1 and p53R2/M1; read-out: In vitro RR activity (IC50) Average
# T5 construct: In vitro RR activity (IC50) Average; other: compound in 1% DMSO; average of M2/M1 and p53R2/M1; other: compound in 2.5% DMSO; other: compound in dH2O + FeCl3; other: compound in dH2O; Inhi; fused on or other part: 6xHis tag on each subunit
# Description: as §1, §2
# (§3) The above-described four SB-HSCs were tested for their inhibitory potency and subunit-selectivity by the in vitro RNR assay in the same manner descried above. The dose-dependent inhibition curves were found.
# [5] = test system: RNR containing hRRM2 or p53R2; assay: as above; assay type: biochemical, human
# Description: as §1, §2, §3
# [6] = biological target: T3, hRRM1 (human ribonucleotide reductase …)
# [7] = biological target: T4, hRRM1 (human ribonucleotide reductase …); assay: complex formation (method not described)
molecule,measurement,setting,value
"NNC(N)=O [SC, semicarbazide, reference compound]",IC50,[1],> 2.19 mM
same,IC50,[2],> 5 mM
same,IC50,[3],> 5 mM
same,IC50,[4],> 5 mM
C[S+](C)[O-] [DMSO],Small subunit selectivity of RNR inhibition (in words),[5],inhibited p53R2-containing-RNR more potently than hRRM2-containing RNR
B1,RNR activity of reconstituted RNR,[6],It was found it possessed RNR activity
B2,RNR activity of reconstituted RNR,[6],It was found it possessed RNR activity
B3,binding result,[7],no binding

# From patent US20050260637A1, “Drug screening” (priority 2004, published 2005)
